{"source": "patent US10941151B2", "about": "“Chiral N-acyl-5,6,7(8-substituted)-tetrahydro-[1,2,4]triazolo[4,3-a]pyrazines as selective NK-3 receptor antagonists, pharmaceutical composition, methods for use in NK-3 receptor mediated disorders and chiral synthesis thereof” (Ogeda SA, priority 2011, dated 2021)", "key": {"[1]": {"tested_on": "circulating levels of luteinizing hormone (LH)", "assay": "Castrated male rat model, circulating luteinizing hormone (LH)", "format": "in vivo", "details": "single intravenous 10 mg/kg dose, castrated male Sprague-Dawley rats, 1 hour after dosing", "text": "Vehicle, N=10 rats; Compound n^o 1, N=9 rats.\nVehicle, n=5 rats; Compound n^o 19, n=5 rats.\nIn humans and rodents, castration is well-precedented to permit heightened, persistent GnRH signaling and consequent elevation of circulating LH. Thus, a castrated rat model is used to provide a broad index for measurement of LH inhibition as a marker of test compound inhibition of the GnRH signaling pathway.\nCastrated adult male Sprague-Dawley (SD) rats (150-175 g,) were purchased from Janvier (St Berthevin, France). […] The animals were allowed 2 weeks of postoperative recovery prior to study. Animals were handled on a daily basis. Standard diet and tap water were provided ad libitum. Animal cage litters were changed once a week. On the study day, animals were acclimated to the procedure room for a period of one hour prior to the initiation of the experiment.\nCompounds of the invention were formulated as a […] with 90 g/L (2-Hydroxypropyl)-β-CycloDextrin.\nAfter basal sampling (T0) a single dose of compounds of the invention or vehicle was administrated intravenously to rats. Blood was then collected at 60 min post dosing. Blood samples were obtained via tail vein bleed, drawn into EDTA-containing tubes and centrifuged immediately. […] Serum LH levels were determined using radioimmunoas say kit from RIAZEN—Rat LH, Zentech (Liège, Belgium). […]"}, "[2]": {"tested_on": "circulating levels of testosterone", "assay": "Gonad-intact adult male rat, circulating testosterone", "format": "in vivo", "details": "single intravenous 50 mg/kg dose, gonad-intact male Sprague-Dawley rats, over 210 minute test period (AUC)"}}, "data": [{"smiles": "Cc1nc(-c2nnc3n2CCN(C(=O)c2ccc(-c4cccs4)cc2)[C@@H]3C)cs1", "note": "[Compound 1, (R)-(8-methyl-3-(2-methylthiazol-4-yl)-5,6-dihydro-[1,2,4]triazolo[4,3-a]pyrazin-7(8H)-yl)(4-(thiophen-2-yl)phenyl)methanone]", "values": [{"measurement": "circulating LH levels", "setting": "[1]", "value": "significantly suppressed"}, {"measurement": "plasma testosterone levels", "setting": "[2]", "value": "significantly suppressed"}]}, {"smiles": "Cc1csc(-c2nnc3n2CCN(C(=O)c2ccc(-c4cccs4)cc2)[C@@H]3C)n1", "note": "[Compound 19, (R)-(8-methyl-3-(4-methylthiazol-2-yl)-5,6-dihydro-[1,2,4]triazolo[4,3-a]pyrazin-7(8H)-yl)(4-(thiophen-2-yl)phenyl)methanone]", "values": [{"measurement": "circulating LH levels", "setting": "[1]", "value": "significantly suppressed"}]}]}
